From publication PMC4931477, “Electronic Biosensing with Functionalized rGO FETs” (Biosensors, 2016) come the findings set out here.

Assay [1] concerns the target T1, OBP14 (odorant binding protein 14) (Apis mellifera, UniProt A0A8U0WQC3).
T1 construct: recombinant, bacterial expression, purified by chromatography and Superose-12 gel filtration; covalently immobilized via PBSE linker on rGO FET gate
T1 sequence (A0A8U0WQC3 17-135): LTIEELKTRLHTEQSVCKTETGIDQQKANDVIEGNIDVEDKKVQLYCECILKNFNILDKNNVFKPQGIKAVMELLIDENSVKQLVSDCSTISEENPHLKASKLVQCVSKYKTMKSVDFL
Put plainly: rGO-FET biosensor, shift of ISD-vs-VG curves with ligand concentration. The conditions noted are these: protein covalently immobilized via PBSE on rGO gate; liquid gate, VSD = 50 mV.

For assay [2], the target named is T1, OBP14 (odorant binding protein 14). Put plainly: rGO-FET biosensor, real-time kinetics (koff/kon), source-drain current.
For assay [3] the target is unchanged. As to the kind of experiment: rGO-FET biosensor, equilibrium titration, Langmuir isotherm. Conditions: protein covalently immobilized via PBSE on rGO gate; aqueous solution; titration determination.

Take `C=CCc1ccc(O)c(OC)c1` [Eugenol]: the “rGO-FET biosensor, shift of ISD-vs-VG curves with ligand concentration” value in assay [1] is given as “OBP14 functionalized rGO FET-biosensor device at different Eugenol concentrations”. A word on the Kd: it is the free concentration of one partner at which half of the binding sites on the other are occupied at equilibrium, for simple one-to-one binding. A lower Kd goes with a tighter complex. For `COc1cc(CC(=O)O)ccc1O` [homovanillic acid], binding in assay [2] was characterised by a dissociation constant (Kd) of 7.1 µM. Also, the KA in assay [3] is reported as 2.5 × 10^5.
